Like-named read-outs stand apart in the source and are kept apart here.
Columns and labels:
[1] = system: trachea isolated from guinea pig; test: Test 3: Direct relaxation of the trachea isolated from guinea pig; assay type: cell-based; details: Cavia porcellus, 50% of the maximum relaxation (relaxation induced by isoproterenol at 1x10⁻⁶ M), cumulative addition, read-out: EC₅₀
Description: Test 3 -Direct relaxation of the trachea isolated from guinea pig.
This test was performed according to the experimental model described by Emmerson, J. and Mackay, D. (J. Pharm. Pharmacol.,1979,31, 798). Tracheas were extracted from male guinea pigs of 400 g of body weight, which had been stunned by a blow in the head. Then, tracheas were cut in zigzag and placed into an isolated organ bath (Letica) containing Krebs-Henseleit solution at 37°C and were bubbled with carbogen (95% O₂ and 5% CO₂). The relaxation of the trachea was measured using an isometric force transducer. The basal tension was 0.5 g. The tested compounds were accumulatively added to the bath and the effective concentration which produces a 50% of the maximum relaxation (EC₅₀) was calculated.

[2] = system: portal vein isolated from rat; test: Test 1: Inhibition of the contraction induced by noradrenaline in portal vein isolated from rat; assay type: cell-based; details: contraction induced by noradrenaline (3µM), compounds incubated for 30 minutes, 50% inhibition versus the basal response, read-out: IC₅₀
Description: Test 1: Inhibition of the contraction induced by noradrenaline in portal vein isolated from rat.
Portal vein was extracted from adult male rats (between 200 and 250 g of body weight), which had been stunned by a blow in the head. Portal vein was installed into an isolated organ bath (Letica) containing a physiological saline solution (Hamilton et al., Br. J. Pharmacol., 1986, 88, 103-111) at 37 °C and a gas bubbler (5% CO₂ and 95% O₂). Contractions were induced by noradrenaline (3µM) and were reverted after thoroughly washing with physiological saline solution. Portal vein contraction was measured with an isometric force transducer and with an initial tension of 1 g. After two contractions with noradrenaline, performed in order to measure the tissue's basal response, the tested compounds were incubated for 30 minutes and a new contraction was induced. The concentration that produces a 50% inhibition (IC₅₀) versus the basal response was calculated.

[3] = system: Spontaneously hypertense rats; test: Test 2: Lowering of the arterial pressure in conscious hypertense rats; assay type: in vivo, rat; details: dose which produces a decrease of 30 mm Hg of the systolic arterial pressure, 3 doses and 3 animals per dose; for ED (30 mmHg decrease): Rattus norvegicus, po, read-out: ED₃₀; for ED₃₀: p.o.
Description: Test 2: Lowering of the arterial pressure in conscious hypertense rats.
Spontaneously hypertense rats (between 200 and 250 g of body weight) of more than 8 weeks of age have been used. Diastolic and systolic arterial pressure of the rat was measured at the caudal artery using a special sphygnomanometer (Letica 5007 and 5007/4) attached to the animal's tail. To ensure rapid and reliable data, animals were placed in a heating plate at 37°C, with the aim to produce a vasodilatation that ensured a better fixation of the rat tail to the transducer chamber. During the experiment, rats are conscious and fixed to a clamp. The tested products were administered orally. Arterial pressure was measured every 30 minutes and 10 minutes before the administration of the tested compound. The ED₃₀ (dose which produces a decrease of 30 mm Hg of the systolic arterial pressure) was calculated for each compound, using 3 doses and 3 animals per dose.

With `CC1(C)Oc2ccc(C#N)cc2[C@@H](NC(=O)[C@@H]2CCCN2C(=O)Oc2ccccc2)[C@@H]1O` (mixture of isomers) [Compound 34, Trans 3,4-dihydro-2,2-dimethyl-3-hydroxy-4-[(2S)-1-phenoxycarbonyl-2-pyrrolidinylcarbonylamino]-2H-1-benzopyran-6-carbonitrile] the EC50 [1] was 2.5 µM, the IC50 ([2]; Rattus norvegicus, 0.5 h) was 2.5 µM and the ED (30 mmHg decrease) [3] was 3 mg/kg.
`CC1(C)Oc2ccc(C#N)cc2[C@@H](NC(=O)[C@@H]2CCCN2C(=O)OCc2ccccc2)[C@@H]1O` (mixture of isomers) [Compound 35, Trans 3,4-dihydro-2,2-dimethyl-3-hydroxy-4-[(2S)-1-benzyloxycarbonyl-2-pyrrolidinylcarbonylamino]-2H-1-benzopyran-6-carbonitrile] was tested, and the EC50 [1] was 0.9 µM and the ED (30 mmHg decrease) [3] was 0.05 mg/kg.
`COc1cccc(COC(=O)N2CCC[C@H]2C(=O)N[C@@H]2c3cc(C#N)ccc3OC(C)(C)[C@H]2O)c1` (mixture of isomers) [Compound 58, Trans 3,4-dihydro-2,2-dimethyl-3-hydroxy-4-[(2S)-1-[(3-methoxyphenyl)methyloxycarbonyl]-2-pyrrolidinylcarbonylamino)-2H-1-benzopyran-6-carbonitrile] was tested, and the IC50 ([2]; Rattus norvegicus, 0.5 h) was 0.5 µM and the ED (30 mmHg decrease) [3] was under 1 mg/kg.
`CC1(C)Oc2ccc(C#N)cc2[C@@H](NC(=O)[C@@H]2CCCN2C(=O)OCc2cccc(Cl)c2)[C@@H]1O` (mixture of isomers) [Compound 60, Trans 3,4-dihydro-2,2-dimethyl-3-hydroxy-4-[(2S)-1-[(3-chlorophenyl)methyloxycarbonyl]-2-pyrrolidinylcarbonylamino)-2H-1-benzopyran-6-carbonitrile] showed an EC50 [1] of 0.1 µM, an IC50 ([2]; Rattus norvegicus, 0.5 h) of 0.2 µM and an ED (30 mmHg decrease) [3] of under 0.5 mg/kg.
With `CC1(C)Oc2ccc(C#N)cc2[C@@H](NC(=S)N2CCCC2)[C@@H]1O` (relative stereo) [Compound 1, Trans 3,4-dihydro-2,2-dimethyl-3-hydroxy-4-(1-pyrrolidinylthiocarbonylamino)-2H-1-benzopyran-6-carbonitrile] the IC50 ([2]; Rattus norvegicus, 0.5 h) was 3.1 µM and the ED (30 mmHg decrease) [3] was over 3 mg/kg.
Compound `CC1(C)Oc2ccc(C#N)cc2[C@@H](NC(=S)N2CCCCC2)[C@@H]1O` (relative stereo) [Compound 3, Trans 3,4-dihydro-2,2-dimethyl-3-hydroxy-4-(1-piperidinylthiocarbonylamino)-2H-1-benzopyran-6-carbonitrile] has an EC50 [1] of 0.8 µM, an IC50 ([2]; Rattus norvegicus, 0.5 h) of 4.2 µM and an ED (30 mmHg decrease) [3] of 0.5 mg/kg.
In the case of `CN1CCN(C(=S)N[C@@H]2c3cc(C#N)ccc3OC(C)(C)[C@H]2O)CC1` (relative stereo) [Compound 7, Trans 3,4-dihydro-2,2-dimethyl-3-hydroxy-4-(4-methyl-1-piperazinylthiocarbonylamino)-2H-1-benzopyran-6-carbonitrile], the EC50 [1] is reported as 1.3 µM, the IC50 ([2]; Rattus norvegicus, 0.5 h) is reported as 5.3 µM and the ED (30 mmHg decrease) [3] is reported as 0.17 mg/kg.
`CC(C)(C)OC(=O)N1CCCCC1C(=O)N[C@@H]1c2cc(C#N)ccc2OC(C)(C)[C@H]1O` (relative stereo) [Compound 13, Trans 3,4-dihydro-2,2-dimethyl-3-hydroxy-4-(1-tert-butoxycarbonyl-2-piperidinylcarbonylamino)-2H-1-benzopyran-6-carbonitrile] gave an EC50 [1] of 6 µM, an IC50 ([2]; Rattus norvegicus, 0.5 h) of 31 µM and an ED (30 mmHg decrease) [3] of 0.18 mg/kg.
In the case of `CC1(C)Oc2ccc(C#N)cc2[C@@H](NC(=O)C2CCCCN2C(=O)Oc2ccccc2)[C@@H]1O` (relative stereo) [Compound 18, Trans 3,4-dihydro-2,2-dimethyl-3-hydroxy-4-(1-phenyloxycarbonyl-2-piperidinylcarbonylamino)-2H-1-benzopyran-6-carbonitrile], the EC50 [1] is reported as 1 µM, the IC50 ([2]; Rattus norvegicus, 0.5 h) is reported as 0.8 µM and the ED (30 mmHg decrease) [3] is reported as 0.7 mg/kg.
In the case of `CC1(C)Oc2ccc(C#N)cc2[C@@H](NC(=O)C2CCCCN2C(=O)OCc2ccccc2)[C@@H]1O` (relative stereo) [Compound 19, Trans 3,4-dihydro-2,2-dimethyl-3-hydroxy-4-(1-benzyloxycarbonyl-2-piperidinylcarbonylamino)-2H-1-benzopyran-6-carbonitrile], the EC50 [1] is reported as 4.5 µM, the IC50 ([2]; Rattus norvegicus, 0.5 h) is reported as 0.8 µM and the ED (30 mmHg decrease) [3] is reported as 0.7 mg/kg.
`CC1(C)Oc2ccc(C#N)cc2[C@@H](NC(=O)C2CCCCC2)[C@@H]1O` (relative stereo) [Compound 45, Trans 4-cyclohexylcarbonylamino-3,4-dihydro-2,2-dimethyl-3-hydroxy-2H-1-benzopyran-6-carbonitrile] gave an EC50 [1] of 0.4 µM, an IC50 ([2]; Rattus norvegicus, 0.5 h) of 3.5 µM and an ED (30 mmHg decrease) [3] of 0.65 mg/kg.
In the case of `CC(C)COC(=O)N1CCC[C@H]1C(=O)N[C@@H]1c2cc(C#N)ccc2OC(C)(C)[C@H]1O` (single isomer, unassigned) [33(A)], the IC50 [2] is reported as over 10 µM and the ED₃₀ [3] is reported as 0.3 mg/kg.
Compound `CC(C)COC(=O)N1CCC[C@H]1C(=O)N[C@@H]1c2cc(C#N)ccc2OC(C)(C)[C@H]1O` (single isomer, unassigned) [33(B)] has an EC50 [1] of 9.1 µM, an IC50 [2] of 0.3 µM and an ED₃₀ [3] of under 0.1 mg/kg.
`CC(C)(C)OC(=O)N1CCC[C@H]1C(=O)N[C@H]1c2cc(C#N)ccc2OC(C)(C)[C@@H]1O` [28(A), Trans (3R,4S)-3,4-dihydro-2,2-dimethyl-3-hydroxy-4-[(2S)-1-tert-butoxycarbonyl-2-pyrrolidinylcarbonylamino]-2H-1-benzopyran-6-carbonitrile] was tested, and the IC50 ([2]; Rattus norvegicus, 0.5 h) was over 10 µM.
Work on `CC(C)(C)OC(=O)N1CCC[C@H]1C(=O)N[C@@H]1c2cc(C#N)ccc2OC(C)(C)[C@H]1O` [28(B), Trans (3S,4R)-3,4-dihydro-2,2-dimethyl-3-hydroxy-4-[(2S)-1-tert-butoxycarbonyl-2-pyrrolidinylcarbonylamino]-2H-1-benzopyran-6-carbonitrile] yielded an EC50 [1] of 4.8 µM, an IC50 ([2]; Rattus norvegicus, 0.5 h) of 2.6 µM and an ED₃₀ [3] of 1.0 mg/kg.
`CC1(C)Oc2ccc(C#N)cc2[C@H](NC(=O)[C@@H]2CCCN2C(=O)OCc2ccccc2)[C@H]1O` [35(A), Trans (3R,4S)-3,4-dihydro-2,2-dimethyl-3-hydroxy-4-[(2S)-1-benzyloxy-carbonyl-2-pyrrolidinylcarbonylamino]-2H-1-benzopyran-6-carbonitrile] showed an IC50 ([2]; Rattus norvegicus, 0.5 h) of 2.4 µM.
For `CC1(C)Oc2ccc(C#N)cc2[C@@H](NC(=O)[C@@H]2CCCN2C(=O)OCc2ccccc2)[C@@H]1O` [35(B), Trans (3S,4R)-3,4-dihydro-2,2-dimethyl-3-hydroxy-4-[(2S)-1-benzyloxy-carbonyl-2-pyrrolidinylcarbonylamino]-2H-1-benzopyran-6-carbonitrile], the IC50 ([2]; Rattus norvegicus, 0.5 h) was 0.2 µM.

Reference: EP0488301A1, “New benzopyran compounds with pharmacological activity” (J. URIACH & CIA. S.A., priority 1990, dated 1992)
